The values that follow come from patent publication US8247594B2, “Insecticidal compounds” (Syngenta Crop Protection LLC, priority 2007, dated 2012).

Assay [1] relates to Tetranychus urticae. Kind of assay: Tetranychus urticae (two-spotted spider mite) leaf disc spray test. The class given is in vivo. The conditions noted are these: application rate 200 ppm, sprayed bean leaf discs, mixed ages, 8 days; egg, larval and adult mortality. From the text:
Tetranychus Urticae (Two-Spotted Spider Mite): Bean leaf discs on agar in 24-well microtiter plates were sprayed with test solutions at an application rate of 200 ppm. After drying, the leaf discs are infested with mite populations of mixed ages. 8 days later, discs are checked for egg mortality, larval mortality, and adult mortality.

Assay [2] concerns Myzus persicae. Kind of assay: Myzus persicae (green peach aphid) leaf disc spray test. The class given is in vivo. The settings on record: application rate 200 ppm, sprayed sunflower leaf discs, mixed ages, 6 DAT; mortality. Here is the method:
Myzus Persicae (Green Peach Aphid): Sunflower leaf discs were placed on agar in a 24-well microtiter plate and sprayed with test solutions at an application rate of 200 ppm. After drying, the leaf discs were infested with an aphid population of mixed ages. After an incubation period of 6 DAT, samples were checked for mortality.

As for `N#Cc1ccc(C(=O)Nc2c(Br)cc(C(F)(C(F)(F)F)C(F)(F)F)cc2Br)cc1NC(=O)OCC(Cl)(Cl)Cl` [A11], the “control of Tetranychus urticae” value in assay [1] was “at least 80%”. For `CCc1cc(C(F)(C(F)(F)F)C(F)(F)C(F)(F)F)cc(CC)c1NC(=O)c1ccc(C#N)c(NC(=O)OCC(Cl)(Cl)Cl)c1` (centres unmarked) [A12], the “control of Myzus persicae” value in assay [2] is on record as “at least 80%”.
